In PubChem BioAssay (NCI):
“And” between values parts separate entries of the source, which are not always exact repeats. Equal entries are not always repeated.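 Cultured in 96-well plates, cells were exposed to test compound for 48 hours across five concentrations. At the GI50, growth is halved. At the TGI there is no net growth.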

Assays:
Experiment in all cases: growth of human tumour cells (NCI), 48 h
T-47D breast = system: T-47D breast
SK-MEL-2 melanoma = system: SK-MEL-2 melanoma
OVCAR-3 ovarian = system: OVCAR-3 ovarian
IGROV1 ovarian = system: IGROV1 ovarian
BT-549 breast = system: BT-549 breast
LOX IMVI melanoma = system: LOX IMVI melanoma
OVCAR-5 ovarian = system: OVCAR-5 ovarian
SF-268 CNS = system: SF-268 CNS
NCI-H226 lung = system: NCI-H226 lung
RPMI-8226 leukemia = system: RPMI-8226 leukemia
HT29 colon = system: HT29 colon
ACHN renal = system: ACHN renal

Structure (SMILES)	TGI (T-47D breast)	TGI (SK-MEL-2 melanoma)	TGI (OVCAR-3 ovarian)	TGI (IGROV1 ovarian) [µM]	TGI (BT-549 breast)	TGI (LOX IMVI melanoma) [µM]	TGI (OVCAR-5 ovarian) [µM]	TGI (SF-268 CNS) [µM]	TGI (NCI-H226 lung)	TGI (RPMI-8226 leukemia)	TGI (HT29 colon) [µM]	TGI (ACHN renal) [µM]	GI50 (SK-MEL-2 melanoma)	GI50 (OVCAR-3 ovarian)	GI50 (LOX IMVI melanoma) [nM]	GI50 (SF-268 CNS) [µM]	GI50 (NCI-H226 lung) [nM]	GI50 (RPMI-8226 leukemia)	GI50 (ACHN renal) [nM]	GI50 (IGROV1 ovarian)
O=c1c2ccccc2[nH]c(=S)n1-c1ccc(N=Nc2cccc3c(O)cccc23)cc1	> 100 µM	> 100 µM	> 100 µM	> 100	> 100 µM	> 100	> 100	> 100	> 100 µM	> 100 µM	> 100	> 100								
CC(C)(C)OC(=O)NCCCCC(NC(=O)OCc1ccccc1)C(N)=O (stereo not drawn)	> 100 µM	> 100 µM	> 100 µM	> 100	> 100 µM	> 100	> 100	> 100	> 100 µM	> 100 µM	> 100	> 100								
O=c1[nH]c2nc3ccccc3c(=O)n2/c1=C/c1ccc(O)cc1	> 100 µM	> 100 µM	> 100 µM	> 100	> 100 µM	> 100	> 100	> 100	> 100 µM	53.2 µM	72	> 100								
Nc1nc(Cl)cc(NCC2(CO)CC(CCc3ccccc3)C2)n1 (stereo not drawn)	> 29.1 µM	> 100 µM	> 100 µM	> 100	> 100 µM	> 100	> 100	> 100	> 100 µM	> 100 µM	> 100	> 100								
CCN(CC)CCOC(c1cc(OC)ccc1OC)c1ccc2n1-c1ccccc1OC2 (stereo not drawn)	51.3 µM	26 µM	31 µM	19.7	25.2 µM	23.6	37.4	28.8	14.6 µM	16 µM	13.9	26.7								
CCC(=O)C(c1ccccc1)c1ccccn1 (stereo not drawn)	> 100 µM	> 100 µM	> 100 µM	> 100	> 100 µM	> 100	> 100	> 100	> 100 µM	> 100 µM	> 100	> 100								
C=CC(=O)c1ccc2c(c1)OCCOCCOCCOCCOCCO2	59.4 µM	> 79.7 µM	35.4 µM	> 100	37.2 µM	35.6	> 100	> 92.8	> 100 µM	> 100 µM	> 56.5	31.9								
COC(=O)C1(Cc2ccccc2)Cc2cc3c(cc2C1=O)CCC3 (stereo not drawn)	66.6 µM	53.1 µM	> 100 µM	> 100	> 100 µM	79.1	> 100	> 100	92.6 µM	52.5 µM	36	> 100								
CCCCCCCCCC[C@@H](O)[C@H]1CC[C@H]([C@H]2CC[C@H]([C@H](O)CCCCCCCCCC[C@@H]3CC(CC(C)=O)C(=O)O3)O2)O1 (stereo partly drawn)	> 50 µM	> 50 µM	> 50 µM	> 50	> 50 µM	> 50	> 50	> 50	6.56 µM and > 50 µM	> 50 µM	> 50	> 50	4.06 µM	4.48 µM	935	4.95	1430	1.39 µM	422	
COc1cc2oc(-c3ccc(O)cc3)c(OC3OC(C)C(O)C(O)C3O)c(=O)c2c(O)c1OC (stereo not drawn)	> 100 µM	> 100 µM	> 100 µM	> 100	> 100 µM	> 100	> 100	> 100	> 100 µM	> 100 µM	> 100	> 100								
CCCCc1c(O)nc(Nc2nc3ccccc3[nH]2)[nH]c1=O	> 100 µM	> 100 µM	> 100 µM	> 100	> 100 µM	> 100	> 100	> 100	> 100 µM	> 100 µM	> 100	> 100								
CC(=O)C(CN1CCCCC1)C(c1ccccc1)c1c(O)c2ccccc2oc1=O (stereo not drawn)	> 100 µM	> 100 µM	> 100 µM	> 100	> 100 µM	> 100	> 100	> 100	> 100 µM	> 100 µM	> 100	> 100								
CCCCN(CC)c1nc(C)nc2c1c(C)c(C)n2-c1c(C)cc(C)cc1C	25.4 µM	25.7 µM	26.6 µM	29.2	34.3 µM	30.4	28.8	31.8	30.1 µM	30.1 µM	22.6	28.1								
CCOC(=O)CCC(NC(=O)c1ccc(OCc2nc3cc(C(F)(F)F)ccc3nc2-c2ccccc2)cc1)C(=O)OCC (stereo not drawn)	> 100 µM	54.1 µM	> 100 µM	> 100	> 100 µM	> 100	> 100	> 100	> 100 µM	> 100 µM	> 100	> 100								
COc1ccc(-c2c(C#N)c(S)n(C3OC(COC(C)=O)C(OC(C)=O)C(OC(C)=O)C3OC(C)=O)c(=O)c2C#N)cc1 (stereo not drawn)	> 100 µM and 52.5 µM	> 100 µM and 36.1 µM	> 100 µM and 61.6 µM	> 100	74.4 µM and 79 µM	> 100	> 100	> 100	> 100 µM	> 100 µM and 60.5 µM	> 100	> 100	91.5 µM and 20 µM	> 100 µM and 23.8 µM				> 100 µM and 23.4 µM		> 100 µM and 49.7 µM
N#CC1=C(N)OC2=C(CSc3ccccc32)C1c1ccc(Br)cc1 (stereo not drawn)	25.8 µM	23 µM	21.6 µM	25.8	28.4 µM	11.2	32.7	25.6	27.9 µM	5.52 µM	18.4									
CCOC(=O)c1cc(C2(O)CCN(Cc3ccccc3)C2=O)c(-c2cc(C)no2)[nH]1 (stereo not drawn)	74.8 µM	> 100 µM	> 100 µM	> 100	> 100 µM	> 100	> 100	> 100	> 100 µM	> 100 µM		> 100								
